Results from article PMC10916551, “NNMT/1‐MNA Promote Cell‐Cycle Progression of Breast Cancer by Targeting UBC12/Cullin‐1‐Mediated Degradation of P27 Proteins” (Advanced Science, 2023).

Biological target: T1, UBC12 (Homo sapiens, UniProt P61081)
T1 construct: gene UBE2M; amine-coupled to CM5 chip
T1 sequence (P61081 1-183): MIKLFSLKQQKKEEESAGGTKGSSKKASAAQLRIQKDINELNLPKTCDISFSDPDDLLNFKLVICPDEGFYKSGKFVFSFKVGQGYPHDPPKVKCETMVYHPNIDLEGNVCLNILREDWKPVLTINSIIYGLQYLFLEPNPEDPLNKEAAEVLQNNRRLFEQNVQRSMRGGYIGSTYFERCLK
Assay: SPR (Biacore T200), UBC12 immobilised on CM5 chip
Assay type: binding

Q: `C[n+]1cccc(C(N)=O)c1` [1-MNA] was tested. Which Kd did it give?
A: 168 nM
